Values quoted from earlier work in patent US20210329915A1, “ABSORPTION PROMOTER, FLYING-INSECT PEST REPELLENT FRAGRANCE-CONTAINING COMPOSITION, AND FLYING-INSECT PEST REPELLENT PRODUCT” (DAINIHON JOCHUGIKU Co., Ltd., priority 2018, published 2021).

Vapor pressure at 20° C. | SMILES
0.67 Pa | CC(O)COC(C)COC(C)CO (stereo not drawn) [tripropylene glycol]
1 Pa | OCCOCCOCCO [triethylene glycol]
10.7 Pa | CC(O)CO (stereo not drawn) [propylene glycol]
3 Pa | CCCCOCCOCCO [diethylene glycol monobutyl ether]
2.7 Pa | OCCOCc1ccccc1 [benzyl glycol]

SMILES | Vapor pressure at 20° C.
OCCOCCO [diethylene glycol] | 3 Pa
